Reference: the supplement of paper PMC8671470
± gives the standard deviation of the averaged measurements.

Tested on: HL-60
Test: cell viability (% survival relative to DMSO control); higher = less cytotoxic
Details: 0.01 µM; 72 h; co-treatment: DMSO vehicle
Outline: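 Area under the curve, where listed, was derived from four-parameter log-logistic fits with drc and PharmacoGx. These fits used CellTiter-Glo viability from HL-60 cells in RPMI 1640 with 10% FBS, normalised to DMSO wells and wells holding 10 μM proteasome inhibitor. The full library was rescreened on 384-well plates in duplicate at five tenfold concentrations, 1–10,000 nM, with DMSO or 100 nM of one of three metabolic inhibitors, for 72 h at 37 °C, 5% CO2.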

Compound	cell viability [%]
N#Cc1ccc(C2CCCc3cncn32)cc1 (stereo not given) [Fadrozole]	101 ± 1.2
Cc1nc(-c2ccc(OCC(C)C)c(C#N)c2)sc1C(=O)O [Febuxostat]	99.3 ± 3.9

Same assay, conditions: 0.01 µM; 72 h; co-treatment: GSK2194069 100 nM

Compound	cell viability [%]
CN(C)CCNC(=O)c1cccn2c(=O)c3cc4ccccc4cc3nc12 [Bmh-21]	102 ± 2.8
C=C1C(=O)O[C@H](CCCCCCCC)[C@H]1C(=O)O [C75]	88.2 ± 8.7
O=C(Cc1cccc(OC(F)(F)F)c1)Nc1ccc(CCCCc2nnc(NC(=O)Cc3ccccn3)s2)nn1 [CB-839]	94.8 ± 4.5
O=NN(CCCl)C(=O)NCCCl [Carmustine]	97.4 ± 11
O[C@H]1[C@H](O)[C@@H](O)CN2CC[C@H](O)[C@H]12 [Castanospermine]	91.1 ± 24
O=C(/C=C/c1cccnc1)NCCCCC1CCN(C(=O)c2ccccc2)CC1 [Daporinad]	31.1 ± 15
N=C(N)c1ccc(N=NNc2ccc(C(=N)N)cc2)cc1 [Diminazene]	100 ± 4
OCCN(CCO)c1nc(N2CCCCC2)c2nc(N(CCO)CCO)nc(N3CCCCC3)c2n1 [Dipyridamole]	94.44 ± 0.53
Cc1cc(O)c2c(c1)C(=O)c1cc(O)cc(O)c1C2=O [Emodin]	76.2 ± 16
N#Cc1ccc(C2CCCc3cncn32)cc1 (stereo not given) [Fadrozole]	97.3 ± 4.8
Cc1nc(-c2ccc(OCC(C)C)c(C#N)c2)sc1C(=O)O [Febuxostat]	93.2 ± 8

Same assay, conditions: 0.01 µM; 72 h; co-treatment: pictilisib 100 nM

Compound	cell viability [%]
CN(C)CCNC(=O)c1cccn2c(=O)c3cc4ccccc4cc3nc12 [Bmh-21]	100.6 ± 0.29
C=C1C(=O)O[C@H](CCCCCCCC)[C@H]1C(=O)O [C75]	90.9 ± 20
O=C(Cc1cccc(OC(F)(F)F)c1)Nc1ccc(CCCCc2nnc(NC(=O)Cc3ccccn3)s2)nn1 [CB-839]	87.5 ± 7.5
O=NN(CCCl)C(=O)NCCCl [Carmustine]	83.1 ± 1.1
O[C@H]1[C@H](O)[C@@H](O)CN2CC[C@H](O)[C@H]12 [Castanospermine]	106 ± 12
O=C(/C=C/c1cccnc1)NCCCCC1CCN(C(=O)c2ccccc2)CC1 [Daporinad]	42 ± 8.7
N=C(N)c1ccc(N=NNc2ccc(C(=N)N)cc2)cc1 [Diminazene]	98 ± 3.4
OCCN(CCO)c1nc(N2CCCCC2)c2nc(N(CCO)CCO)nc(N3CCCCC3)c2n1 [Dipyridamole]	101 ± 8.1
Cc1cc(O)c2c(c1)C(=O)c1cc(O)cc(O)c1C2=O [Emodin]	107 ± 18
N#Cc1ccc(C2CCCc3cncn32)cc1 (stereo not given) [Fadrozole]	101 ± 3.5
Cc1nc(-c2ccc(OCC(C)C)c(C#N)c2)sc1C(=O)O [Febuxostat]	100 ± 2.6

Same assay, conditions: 0.1 µM; 72 h; co-treatment: AZD3965 100 nM

Compound	cell viability [%]
CN(C)CCNC(=O)c1cccn2c(=O)c3cc4ccccc4cc3nc12 [Bmh-21]	101 ± 1.9
C=C1C(=O)O[C@H](CCCCCCCC)[C@H]1C(=O)O [C75]	107 ± 2.8
O=C(Cc1cccc(OC(F)(F)F)c1)Nc1ccc(CCCCc2nnc(NC(=O)Cc3ccccn3)s2)nn1 [CB-839]	103 ± 3.3
O=NN(CCCl)C(=O)NCCCl [Carmustine]	99.5 ± 3.9
O[C@H]1[C@H](O)[C@@H](O)CN2CC[C@H](O)[C@H]12 [Castanospermine]	104 ± 3.5
O=C(/C=C/c1cccnc1)NCCCCC1CCN(C(=O)c2ccccc2)CC1 [Daporinad]	1.54 ± 0.52
N=C(N)c1ccc(N=NNc2ccc(C(=N)N)cc2)cc1 [Diminazene]	106 ± 4.5
OCCN(CCO)c1nc(N2CCCCC2)c2nc(N(CCO)CCO)nc(N3CCCCC3)c2n1 [Dipyridamole]	100.7 ± 0.65
Cc1cc(O)c2c(c1)C(=O)c1cc(O)cc(O)c1C2=O [Emodin]	101 ± 2.3
N#Cc1ccc(C2CCCc3cncn32)cc1 (stereo not given) [Fadrozole]	101 ± 12
Cc1nc(-c2ccc(OCC(C)C)c(C#N)c2)sc1C(=O)O [Febuxostat]	104 ± 1.4

Same assay, conditions: 0.1 µM; 72 h; co-treatment: DMSO vehicle

Compound	cell viability [%]
CN(C)CCNC(=O)c1cccn2c(=O)c3cc4ccccc4cc3nc12 [Bmh-21]	102 ± 4.9
C=C1C(=O)O[C@H](CCCCCCCC)[C@H]1C(=O)O [C75]	101.8 ± 0.69
O=C(Cc1cccc(OC(F)(F)F)c1)Nc1ccc(CCCCc2nnc(NC(=O)Cc3ccccn3)s2)nn1 [CB-839]	97.9 ± 2.6
O=NN(CCCl)C(=O)NCCCl [Carmustine]	100.48 ± 0.1
O[C@H]1[C@H](O)[C@@H](O)CN2CC[C@H](O)[C@H]12 [Castanospermine]	96.8 ± 3
O=C(/C=C/c1cccnc1)NCCCCC1CCN(C(=O)c2ccccc2)CC1 [Daporinad]	3.2 ± 0.55
N=C(N)c1ccc(N=NNc2ccc(C(=N)N)cc2)cc1 [Diminazene]	99.712 ± 0.039
OCCN(CCO)c1nc(N2CCCCC2)c2nc(N(CCO)CCO)nc(N3CCCCC3)c2n1 [Dipyridamole]	107 ± 0.53
Cc1cc(O)c2c(c1)C(=O)c1cc(O)cc(O)c1C2=O [Emodin]	101 ± 3.1
N#Cc1ccc(C2CCCc3cncn32)cc1 (stereo not given) [Fadrozole]	104 ± 5.4
Cc1nc(-c2ccc(OCC(C)C)c(C#N)c2)sc1C(=O)O [Febuxostat]	103 ± 5.2

Same assay, conditions: 0.1 µM; 72 h; co-treatment: GSK2194069 100 nM

Compound	cell viability [%]
CN(C)CCNC(=O)c1cccn2c(=O)c3cc4ccccc4cc3nc12 [Bmh-21]	101 ± 5.3
C=C1C(=O)O[C@H](CCCCCCCC)[C@H]1C(=O)O [C75]	102 ± 4.4
O=C(Cc1cccc(OC(F)(F)F)c1)Nc1ccc(CCCCc2nnc(NC(=O)Cc3ccccn3)s2)nn1 [CB-839]	97.4 ± 4.9
O=NN(CCCl)C(=O)NCCCl [Carmustine]	98.9 ± 2.9
O[C@H]1[C@H](O)[C@@H](O)CN2CC[C@H](O)[C@H]12 [Castanospermine]	103 ± 3.5
O=C(/C=C/c1cccnc1)NCCCCC1CCN(C(=O)c2ccccc2)CC1 [Daporinad]	2.41 ± 0.44
N=C(N)c1ccc(N=NNc2ccc(C(=N)N)cc2)cc1 [Diminazene]	105 ± 5.9
OCCN(CCO)c1nc(N2CCCCC2)c2nc(N(CCO)CCO)nc(N3CCCCC3)c2n1 [Dipyridamole]	106 ± 3.8
Cc1cc(O)c2c(c1)C(=O)c1cc(O)cc(O)c1C2=O [Emodin]	94 ± 6.6
N#Cc1ccc(C2CCCc3cncn32)cc1 (stereo not given) [Fadrozole]	101 ± 17
Cc1nc(-c2ccc(OCC(C)C)c(C#N)c2)sc1C(=O)O [Febuxostat]	94.47 ± 0.83

Same assay, conditions: 0.1 µM; 72 h; co-treatment: pictilisib 100 nM

Compound	cell viability [%]
CN(C)CCNC(=O)c1cccn2c(=O)c3cc4ccccc4cc3nc12 [Bmh-21]	104 ± 2.9
C=C1C(=O)O[C@H](CCCCCCCC)[C@H]1C(=O)O [C75]	105 ± 3.7
O=C(Cc1cccc(OC(F)(F)F)c1)Nc1ccc(CCCCc2nnc(NC(=O)Cc3ccccn3)s2)nn1 [CB-839]	78.3 ± 1.6
O=NN(CCCl)C(=O)NCCCl [Carmustine]	110 ± 7.2
O[C@H]1[C@H](O)[C@@H](O)CN2CC[C@H](O)[C@H]12 [Castanospermine]	89.4 ± 14
O=C(/C=C/c1cccnc1)NCCCCC1CCN(C(=O)c2ccccc2)CC1 [Daporinad]	2.3 ± 1.4
N=C(N)c1ccc(N=NNc2ccc(C(=N)N)cc2)cc1 [Diminazene]	107.8 ± 0.59
OCCN(CCO)c1nc(N2CCCCC2)c2nc(N(CCO)CCO)nc(N3CCCCC3)c2n1 [Dipyridamole]	105.3 ± 0.23
